{
  "source": "patent US20230339886A1",
  "about": "(University of Florida Research Foundation, Incorporated, priority 2020, published 2023)",
  "data": [
    {"biological_target": "T1, REV-ERBα LBD (human; residues 281-614 Δ324-422) (Homo sapiens, UniProt P20393, DEL324-422)", "T1 construct": "6×Histag-REV-ERBα LBD (human; residues 281-614 Δ324-422); made in house; host or cells: Escherichia coli", "T1 sequence (P20393 with tags, fused parts or gaps DEL324-422)": "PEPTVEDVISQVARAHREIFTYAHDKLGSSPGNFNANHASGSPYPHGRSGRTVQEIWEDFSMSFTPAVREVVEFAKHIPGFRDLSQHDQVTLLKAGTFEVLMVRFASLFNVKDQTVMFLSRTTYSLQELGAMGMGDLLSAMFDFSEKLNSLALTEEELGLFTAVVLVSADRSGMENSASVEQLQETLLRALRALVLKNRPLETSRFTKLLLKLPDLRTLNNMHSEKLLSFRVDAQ", "T1 sequence (Q9Y618 2335-2356 partner limits assumed)": "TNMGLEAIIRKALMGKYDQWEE", "assay": "TR-FRET corepressor interaction assay (REV-ERBα LBD, FITC-SMRT peptide)", "type": "biochemical", "settings": "FITC-SMRT peptide, read-out: REVERBα agonism (EC50 class, FRET assay)", "experimental": "(§1) TR-FRET corepressor interaction assay. The time-resolved fluorescence resonance energy transfer (TR-FRET) assay was performed in black low-volume 384-well plates (Greiner). […] Ligand stocks were prepared via serial dilution in DMSO, added to wells in triplicate, and plates were incubated at 4° C. for 2 h and read using a BioTek Synergy Neo multimode plate reader. The Tb donor was excited at 340 nm; its fluorescence emission was monitored at 495 nm, and the acceptor FITC emission was measured at 520 nm; and the TR-FRET ratio was calculated as the signal at 520 nm divided by the signal at 495 nm. Data were plotted using GraphPad Prism as TR-FRET ratio vs. ligand concentration and fit to sigmoidal dose response curve equation.", "units": {"EC50": "nM"}, "values": [
      {"smiles": "CC(C)(C)Cn1cc([C@H](NS(=O)(=O)C2CC2)C(F)(F)F)c2ccc(-c3c(F)cccc3Cl)cc21", "note": "[Example 464, (S)—N-(1-(6-(2-chloro-6-fluorophenyl)-1-neopentyl-1H-indol-3-yl)-2,2,2-trifluoroethyl)cyclopropanesulfonamide]", "EC50": "< 500"},
      {"smiles": "CC(C)(C)Cn1cc([C@H](CF)NS(=O)(=O)C2CCC2)c2ccc(-c3ccccc3C(F)(F)F)cc21", "note": "[Example 429, (R)—N-(2-fluoro-1-(1-neopentyl-6-(2-(trifluoromethyl)phenyl)-1H-indol-3-yl)ethyl)cyclobutanesulfonamide]", "EC50": "< 500"},
      {"smiles": "CC(C)Cn1cc(C(CS(=O)(=O)C2CC2)C(F)(F)F)c2ccc(-c3ccccc3C(F)(F)F)cc21", "note": "(centres unmarked) [Example 498, 3-(3-(cyclopropylsulfonyl)-1,1,1-trifluoropropan-2-yl)-1-isobutyl-6-(2-(trifluoromethyl)phenyl)-1H-indole]", "EC50": "500 to 3000"},
      {"smiles": "CC(C)(C)Cn1cc([C@H](NS(=O)(=O)C2CCC2)C(F)(F)F)c2cc(F)c(-c3ncccc3C(F)(F)F)cc21", "note": "[Example 444, (S)—N-(2,2,2-trifluoro-1-(5-fluoro-1-neopentyl-6-(3-(trifluoromethyl)pyridin-2-yl)-1H-indol-3-yl)ethyl)cyclobutanesulfonamide]", "EC50": "< 500"},
      {"smiles": "Cc1cccc(C(F)(F)F)c1-c1ccc2c([C@H](NS(=O)(=O)C3CC3)C(F)(F)F)cn(CC(C)(C)C)c2c1", "note": "[Example 463, (S)—N-(2,2,2-trifluoro-1-(6-(2-methyl-6-(trifluoromethyl)phenyl)-1-neopentyl-1H-indol-3-yl)ethyl)cyclopropanesulfonamide]", "EC50": "< 500"},
      {"smiles": "CC(C)(C)Cn1cc([C@H](NS(=O)(=O)C2CCC2)C(F)(F)F)c2ccc(C3CCCC3)cc21", "note": "[Example 506, (S)—N-(1-(6-cyclopentyl-1-neopentyl-1H-indol-3-yl)-2,2,2-trifluoroethyl)cyclobutanesulfonamide]", "EC50": "< 500"},
      {"smiles": "CC(C)Cn1cc([C@H](NS(=O)(=O)C2CCC2)C(F)(F)F)c2ccc(-c3ccccc3C(F)(F)F)cc21", "note": "[Example 499, (S)—N-(2,2,2-trifluoro-1-(1-isobutyl-6-(2-(trifluoromethyl)phenyl)-1H-indol-3-yl)ethyl)cyclobutanesulfonamide]", "EC50": "< 500"},
      {"smiles": "CC(C)Cn1cc([C@H](NS(=O)(=O)C2CC2)C(F)(F)F)c2cc(F)c(-c3ccncn3)cc21", "note": "[Example 455, (S)—N-(2,2,2-trifluoro-1-(5-fluoro-1-isobutyl-6-(pyrimidin-4-yl)-1H-indol-3-yl)ethyl)cyclopropanesulfonamide]", "EC50": "< 500"},
      {"smiles": "CC(C)(C)Cn1cc([C@H](NS(=O)(=O)C2CC2)C(F)(F)F)c2ccc(-c3c(F)cccc3C#N)cc21", "note": "[Example 460, (S)—N-(1-(6-(2-cyano-6-fluorophenyl)-1-neopentyl-1H-indol-3-yl)-2,2,2-trifluoroethyl)cyclopropanesulfonamide]", "EC50": "< 500"}
    ]},
    {"biological_target": "T1, REV-ERBα LBD (human; residues 281-614 Δ324-422)", "assay": "TR-FRET corepressor interaction assay (REV-ERBα LBD, FITC-SMRT peptide)", "type": "biochemical", "settings": "Table 2, read-out: REVERBα agonism (EC50 class, FRET assay)", "experimental": "as §1", "units": {"EC50": "nM"}, "values": [
      {"smiles": "CC(C)(C)Cn1cc([C@H](NS(=O)(=O)C2CC2)C(F)(F)F)c2cc(F)c(-c3c(F)cccc3C(F)(F)F)cc21", "note": "[Example 351, N-((1S)-2,2,2-trifluoro-1-(5-fluoro-6-(2-fluoro-6-(trifluoromethyl)phenyl)-1-neopentyl-1H-indol-3-yl)ethyl)cyclopropanesulfonamide]", "EC50": "< 500"},
      {"smiles": "CN(C)S(=O)(=O)NCCc1cn(Cc2cccc(Br)c2)c2cc(-c3ccncc3)ccc12", "note": "[Example 143, N-{2-[6-(pyridin-4-yl)-1-(3-bromobenzyl)-1H-indol-3-yl]ethyl}-N,N-dimethylsulfuric diamide]", "EC50": "< 500"},
      {"smiles": "CC(C)Cn1cc(CCNS(=O)(=O)N(C)C)c2ccc(-c3ccccc3OCc3ccccc3)cc21", "note": "[Example 77, N-{2-[6-(2-benzyloxylphenyl)-1-(2-methylpropyl)-1H-indol-3-yl]ethyl}-N,N-dimethyl-sulfuric diamide]", "EC50": "500 to 3000"},
      {"smiles": "CC(C)Cn1cc(CCNS(=O)(=O)N(C)C)c2ccc(-c3ccccc3C(=O)OC(C)(C)C)cc21", "note": "[Example 79]", "EC50": "500 to 3000"},
      {"smiles": "CC(C)c1cc2c(cc1F)c([C@H](NS(=O)(=O)N(C)C)C(F)(F)F)cn2CC(C)(C)C", "note": "[Example 337, {[(1S)-1-[1-(2,2-dimethylpropyl)-5-fluoro-6-(propan-2-yl)-1H-indol-3-yl]-2,2,2-trifluoroethyl]sulfamoyl}dimethylamine]", "EC50": "500 to 3000"},
      {"smiles": "CC(C)(C)Cn1cc([C@H](NS(=O)(=O)C2CCC2)C(F)(F)F)c2cc(F)c(-c3ccccc3C(F)(F)F)cc21", "note": "[Example 374, (S)—N-(2,2,2-trifluoro-1-(5-fluoro-1-neopentyl-6-(2-(trifluoromethyl)phenyl)-1H-indol-3-yl)ethyl)cyclobutanesulfonamide]", "EC50": "< 500"},
      {"smiles": "Cc1cccc2c(CCNS(=O)(=O)N(C)C)cn(CC(C)C)c12", "note": "[Example 169, dimethyl({2-[7-methyl-1-(2-methylpropyl)-1H-indol-3-yl]ethyl}sulfamoyl)amine]", "EC50": "500 to 3000"},
      {"smiles": "CC(C)(C)Cn1cc([C@H](NS(=O)(=O)C(C)(C)C)C(F)(F)F)c2cc(F)c(-c3ccccc3C(F)(F)F)cc21", "note": "[Example 366, (S)-2-methyl-N-(2,2,2-trifluoro-1-(5-fluoro-1-neopentyl-6-(2-(trifluoromethyl)phenyl)-1H-indol-3-yl)ethyl)propane-2-sulfonamide]", "EC50": "500 to 3000"},
      {"smiles": "CC(C)Cn1cc(CCNS(=O)(=O)N(C)C)c2ccc(-n3ccnc3)cc21", "note": "[Example 93, N-{2-[6-(1H-imidazol-1-yl)-1-(2-methylpropyl)-1H-indol-3-yl]ethyl}-N,N-dimethylsulfuric diamide]", "EC50": "500 to 3000"},
      {"smiles": "CC(C)Cn1cc(CNS(=O)(=O)C(C)C)c2cc(F)c(-c3ccccc3Cl)cc21", "note": "[Compound 267]", "EC50": "< 500"},
      {"smiles": "CCn1cc(CCNS(=O)(=O)N(C)C)c2ccc(-c3ccncc3)cc21", "note": "[Example 132, N′-{2-[6-(pyridin-4-yl)-1-ethyl-1H-indol-3-yl]ethyl}-N,N-dimethylsulfuric diamide]", "EC50": "> 3000"},
      {"smiles": "CC(C)(C)Cn1cc([C@H](NS(=O)(=O)C2CC2)C(F)(F)F)c2cc(F)c(C3CC3)cc21", "note": "[Example 327, (S)—N-(1-(6-cyclopropyl-5-fluoro-1-neopentyl-1H-indol-3-yl)-2,2,2-trifluoroethyl)cyclopropanesulfonamide]", "EC50": "< 500"},
      {"smiles": "CC(C)(C)Cc1cn(CCNS(=O)(=O)C2CC2)c2ccc(-c3ccc4cc(O)ccc4c3)cc12", "note": "[Example 211, N-(2-(5-(6-hydroxynaphthalen-2-yl)-3-neopentyl-1H-indol-1-yl)ethyl)cyclopropane sulfonamide]", "EC50": "500 to 3000"},
      {"smiles": "CC(C)Cn1cc([C@H](NS(=O)(=O)C2CC2)C(F)(F)F)c2cc(F)c(-c3ccn[nH]3)cc21", "note": "[Example 377, (S)—N-(2,2,2-trifluoro-1-(5-fluoro-1-isobutyl-6-(1H-pyrazol-5-yl)-1H-indol-3-yl)ethyl)cyclopropanesulfonamide]", "EC50": "500 to 3000"},
      {"smiles": "CC(C)Cn1cc(CCN(C(C)C)S(=O)(=O)C(C)C)c2ccc(-c3ccncc3)cc21", "note": "[Compound 277]", "EC50": "< 500"},
      {"smiles": "CN(C)S(=O)(=O)NCCn1cc(CC(F)(F)F)c2cc(Cl)ccc21", "note": "[Example 152, N-{2-[5-chloro-3-(2,2,2-trifluoroethyl)-1H-indol-1-yl]ethyl}-N,N-dimethylsulfuric diamide]", "EC50": "500 to 3000"},
      {"smiles": "Cc1ccc(-c2ccc3c(c2)c(CC(C)(C)C)cn3CCNS(=O)(=O)C2CC2)c(C(F)(F)F)c1", "note": "[Example 402, N-(2-(5-(4-methyl-2-(trifluoromethyl)phenyl)-3-neopentyl-1H-indol-1-yl)ethyl)cyclopropanesulfonamide]", "EC50": "< 500"}
    ]}
  ]
}
